In patent US20100216805A1, “MODULATION OF NEUROGENESIS USING D-CYCLOSERINE COMBINATIONS” (BrainCells, Inc., priority 2009, published 2010):
Where “and” joins values, the source holds several entries; their conditions need not be identical. Equal values may be shown once. Read-outs that look alike come from different tables or passages of the source.

Key:
[1] = system: Human neural stem cells (hNSCs); assay: Neuronal differentiation of human neural stem cells (TUJ-1 staining), concentration response and combination index; format: cell-based
Experimental: Mitogen-free test media with a positive control for neuronal differentiation was used along with basal media without growth factors as a negative control.
To determine the most efficacious dose and dose ratio of D-cycloserine in combination with pindolol or (S)-(−)-pindolol for future preclinical and clinical studies, dose ranging studies were conducted examining synergy for neurogenesis. […] The pindolol or (S)-(−)-pindolol concentrations were varied based on the respective ratios tested. Individual dose response curves were prepared for each concentration ratio as previously described with cells stained with TUJ-1 antibody for the detection of neuronal differentiation.
The presence of synergy was determined by use of a combination index (CI). […] The CI is a quantitative measure of the nature of drug interactions, comparing the EC50's of two compounds, when each is assayed alone, to the EC50 of each compound when assayed in combination. The combination index (CI) is equal to the following formula: […]
where C1 and C2 are the concentrations of a first and a second compound, respectively, resulting in 50% activity in neuronal differentiation when assayed in combination; and IC1 and IC2 are the concentrations of each compound resulting in 50% activity when assayed independently.

[2] = system: KA, AMPA, and NMDA iGlu receptors; conditions: cited from earlier work
[3] = system: Group I or Group III receptors; conditions: at sub-mM concentrations; cited from earlier work
mGluR2 = mGluR2 (Homo sapiens, UniProt Q14416); conditions: read-out: IC50 against mGluR2; cited from earlier work
mGluR3 = mGluR3 (Homo sapiens, UniProt Q14832); conditions: read-out: IC50 against mGluR3; cited from earlier work
human mGlu2 = human mGlu2 (Homo sapiens, UniProt Q14416); conditions: in vitro; low nanomolar range; read-out: EC50 against human mGlu2 receptor; cited from earlier work
human mGlu3 = human mGlu3 (Homo sapiens, UniProt Q14832); conditions: in vitro; low nanomolar range; read-out: EC50 against human mGlu3 receptor; cited from earlier work
[4] = Homo sapiens, Neural stem cell, agent run independently, % of neuronal positive control, basal media subtracted, figure legends, read-out: EC50 when used alone, neuronal differentiation

human mGlu2, sequence (Q14416 19-872): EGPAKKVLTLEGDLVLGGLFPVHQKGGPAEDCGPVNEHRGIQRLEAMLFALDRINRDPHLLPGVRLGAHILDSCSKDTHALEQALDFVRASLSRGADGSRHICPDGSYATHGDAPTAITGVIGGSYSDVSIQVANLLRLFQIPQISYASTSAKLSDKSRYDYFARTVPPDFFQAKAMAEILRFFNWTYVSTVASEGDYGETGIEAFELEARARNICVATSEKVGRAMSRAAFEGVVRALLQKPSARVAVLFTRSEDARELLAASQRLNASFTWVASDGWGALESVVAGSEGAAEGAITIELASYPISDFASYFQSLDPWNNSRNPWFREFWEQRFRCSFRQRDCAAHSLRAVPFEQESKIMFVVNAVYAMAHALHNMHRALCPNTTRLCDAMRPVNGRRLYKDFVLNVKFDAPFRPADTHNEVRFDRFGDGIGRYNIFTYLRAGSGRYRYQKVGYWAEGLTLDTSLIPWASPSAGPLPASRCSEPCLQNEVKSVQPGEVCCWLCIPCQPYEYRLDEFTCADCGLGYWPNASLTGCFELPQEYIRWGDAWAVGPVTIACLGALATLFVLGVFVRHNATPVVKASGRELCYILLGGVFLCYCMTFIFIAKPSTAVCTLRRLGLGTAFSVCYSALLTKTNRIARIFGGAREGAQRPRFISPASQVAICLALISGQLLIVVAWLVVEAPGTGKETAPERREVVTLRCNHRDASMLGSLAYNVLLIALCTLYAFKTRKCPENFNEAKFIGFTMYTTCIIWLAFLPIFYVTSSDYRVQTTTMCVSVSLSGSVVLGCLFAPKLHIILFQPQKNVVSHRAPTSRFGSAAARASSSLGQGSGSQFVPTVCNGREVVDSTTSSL
mGluR2, sequence (Q14416 19-872): as above
human mGlu3, sequence (Q14832 23-879): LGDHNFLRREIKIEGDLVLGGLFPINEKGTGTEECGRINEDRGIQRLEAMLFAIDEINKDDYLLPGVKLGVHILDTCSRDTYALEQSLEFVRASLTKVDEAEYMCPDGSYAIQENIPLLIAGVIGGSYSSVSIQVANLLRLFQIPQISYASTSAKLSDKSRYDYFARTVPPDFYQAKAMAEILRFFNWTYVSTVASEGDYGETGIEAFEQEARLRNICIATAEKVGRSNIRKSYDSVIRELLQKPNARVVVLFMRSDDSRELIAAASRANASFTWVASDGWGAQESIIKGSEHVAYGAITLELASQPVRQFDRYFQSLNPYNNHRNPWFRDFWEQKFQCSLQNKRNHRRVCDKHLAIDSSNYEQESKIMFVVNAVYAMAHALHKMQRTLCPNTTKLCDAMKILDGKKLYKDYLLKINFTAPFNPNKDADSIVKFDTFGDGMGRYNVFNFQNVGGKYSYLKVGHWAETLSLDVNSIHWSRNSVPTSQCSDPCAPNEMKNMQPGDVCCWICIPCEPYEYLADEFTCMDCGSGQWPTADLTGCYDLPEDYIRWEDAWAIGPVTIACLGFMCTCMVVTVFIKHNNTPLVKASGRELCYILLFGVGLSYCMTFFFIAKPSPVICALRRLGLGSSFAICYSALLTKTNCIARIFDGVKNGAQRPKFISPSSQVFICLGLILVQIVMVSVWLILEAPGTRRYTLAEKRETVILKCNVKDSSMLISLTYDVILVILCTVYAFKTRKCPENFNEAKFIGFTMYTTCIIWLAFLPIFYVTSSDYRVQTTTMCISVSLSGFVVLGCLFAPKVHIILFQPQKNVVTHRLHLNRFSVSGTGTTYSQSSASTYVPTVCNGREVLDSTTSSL
mGluR3, sequence (Q14832 23-879): as above

CC(C)NC[C@H](O)COc1cccc2[nH]ccc12 [(S)-(−)-Pindolol]
EC50 ([1]; Table 2, (S)-(−)-pindolol alone, run with the ratio of that row, read-out: Solo EC50's (S)-(−)-Pindolol): 2.8 µM and 1.82 µM and 1.78 µM | EC50 ([1]; agent run independently, % of neuronal positive control, basal media subtracted, figure legends, read-out: EC50 when used alone, neuronal differentiation): 1.8 µM

N[C@@H]1CONC1=O [D-cycloserine, (4R)-4-amino-1,2-oxazolidin-3-one]
EC50 ([1]; Homo sapiens, Neural stem cell, Table 1, D-cycloserine alone, run with the ratio of that row, read-out: Solo EC50's D-cycloserine): 7.91 µM | EC50 ([1]; Homo sapiens, Neural stem cell, Table 2, D-cycloserine alone, run with the ratio of that row, read-out: Solo EC50's D-cycloserine): 5.62 µM | EC50 ([1]; Table 1, D-cycloserine alone, run with the ratio of that row, read-out: Solo EC50's D-cycloserine): 8.48 µM and 7.41 µM | EC50 ([1]; Table 2, D-cycloserine alone, run with the ratio of that row, read-out: Solo EC50's D-cycloserine): 8.48 µM

CC(C)NCC(O)COc1cccc2[nH]ccc12 (centres unmarked) [Pindolol]
EC50 ([1]; Homo sapiens, Neural stem cell, Table 1, pindolol alone, run with the ratio of that row, read-out: Solo EC50's Pindolol): 1.43 µM | EC50 [1, 4]: 1.4 µM | EC50 ([1]; Table 1, pindolol alone, run with the ratio of that row, read-out: Solo EC50's Pindolol): 1.32 µM and 1.98 µM and 1.65 µM

N[C@](CC1c2ccccc2Oc2ccccc21)(C(=O)O)[C@H]1C[C@@H]1C(=O)O [LY341495, (2S)-2-amino-2-(1S,2S-2-carboxycycloprop-1-yl)-3-(xanth-9-yl) propanoic acid]
activity against KA, AMPA, and NMDA iGlu receptors [2]: substantially inactive

CC(=O)N[C@@H](CS)C(=O)O [N-acetyl-L-cysteine]
EC50 [1, 4]: 114 µM

COCCOC(=O)C1=C(C)NC(C)=C(C(=O)OC(C)C)C1c1cccc([N+](=O)[O-])c1 (centres unmarked) [nimodipine]
EC50 [1, 4]: 100 µM

NC1(C(=O)O)CCc2cc(P(=O)(O)O)ccc21 (racemic) [APICA, (RS)-1-amino-5-phosphonoindan-1-carboxylic acid]
activity against Group I or Group III receptors [3]: no appreciable activity | IC50 (mGluR2): ~30 µM | IC50 (mGluR3): ~30 µM

CC(CCc1ccccc1)NCC(O)c1ccc(O)c(C(N)=O)c1 (centres unmarked) [labetalol]
EC50 [1, 4]: 5.5 µM

CCC(=O)c1c(O)cc(O)cc1O [flopropione]
EC50 [1, 4]: 16.6 µM

N[C@@]1(C(=O)O)CO[C@H]2[C@H](C(=O)O)[C@H]21 [LY379268, (−)-2-Oxa-4-aminobicyclohexane-4,6-dicarboxylic acid]
EC50 (human mGlu2): < 0.01 µM | EC50 (human mGlu3): < 0.01 µM

CC1(C)O[C@@H]2[C@@H](CO[C@@]3(COS(N)(=O)=O)OC(C)(C)O[C@@H]23)O1 [topiramate]
EC50 [1, 4]: 7.1 µM

CC(C)(C)NCC(O)COc1cccc2c1CC(O)C(O)C2 (centres unmarked) [nadolol]
EC50 [1, 4]: 6.7 µM

Nc1nc2ncc(CNc3ccc(C(=O)N[C@@H](CCC(=O)O)C(=O)O)cc3)nc2c(=O)[nH]1 [folic acid]
EC50 [1, 4]: 1.09 µM

NC(=O)C[S+]([O-])C(c1ccccc1)c1ccccc1 (centres unmarked) [modafinil]
EC50 ([1]; Homo sapiens, Neural stem cell, read-out: EC50 when used alone, neuronal differentiation): 11 µM
